Several values for one entry are separate records, joined by “and”; a condition that tells them apart may be missing. Equal values may be shown once.
Tested on: patients with HCC
Assay: Tumor response / efficacy in patients with HCC (RECIST 1.1/modified RECIST), trial NCT02834780
Type: in vivo, human
Conditions: for Clinical Benefit Rate (CBR)(CR+PR+Durable SD): durable SD = stable disease ≥ 17 weeks; for clinical benefit rate / confirmed ORR: 55 HCC patients with ≥ 2 prior lines of therapy; for clinical benefit rate (complete response + partial response + durable stable disease) / confirmed overall response rate (ORR): 90 patients with HCC; for median OS / median PFS: HCC patients with ≥ 2 prior lines of therapy; for median overall survival (OS) / median progression-free survival (PFS): all HCC patients
From the text: A description of the first in human clinical trial for H3B-6527 can be found at the ClinicalTrials.gov by searching for trial identifier NCT02834780. In summary, the trial included a study population having the following characteristics: Adult patients ≥18 years old with advanced HCC or ICC; Progression after at least one prior therapy; ECOG score of 0 or 1; Well compensated liver function; FGF19-positive (dose expansion phase only); Excluded if patients have significant active infections [except hepatitis B virus (HBV) and hepatitis C virus (HCV)], gastric or esophageal varices, or previous FGF19-FGFR4 targeted therapy.
Drug Administration and Dosage for Dose Escalation: H3B-6527 was administered orally QD or BID on a 21-day cycle. Dose escalation followed a standard 3+3 cohort design with the dose cohorts of 300, 600, 1000, and 1400 mg QD fasting or 500 and 700 mg BID fed. Patients in dose escalation phase were treated regardless of FGF19 status. Response determined by RECIST 1.1/modified RECIST every 6 weeks

[1] = Expansion 1000 mg QD Fasted (N=10)

SMILES: C=CC(=O)Nc1cc(N2CCN(CC)CC2)ccc1Nc1cc(N(C)C(=O)Nc2c(Cl)c(OC)cc(OC)c2Cl)ncn1 [H3B-6527, N-(2-((6-(3-(2,6-dichloro-3,5-dimethoxyphenyl)-1-methylureido)pyrimidin-4-yl)amino)-5-(4-ethylpiperazin-1-yl)phenyl)acrylamide]
- Best Overall Response: Complete Response (CR) (300 mg QD Fasted (N=3)): 0 (0.0) n (%)
- Best Overall Response: Not Evaluable (300 mg QD Fasted (N=3)): 0 (0.0) n (%)
- Best Overall Response: Partial Response (PR) (300 mg QD Fasted (N=3)): 0 (0.0) n (%)
- Best Overall Response: Progressive Disease (PD) (300 mg QD Fasted (N=3)): 0 (0.0) n (%)
- Best Overall Response: Unknown (300 mg QD Fasted (N=3)): 0 (0.0) n (%)
- Objective Response Rate (CR+PR) (300 mg QD Fasted (N=3)): 0 (0.0) n (%)
- Clinical Benefit Rate (CBR)(CR+PR+Durable SD) (300 mg QD Fasted (N=3)): 1 (33.3) n (%)
- Best Overall Response: Complete Response (CR) (600 mg QD Fasted (N=3)): 0 (0.0) n (%)
- Best Overall Response: Not Evaluable (600 mg QD Fasted (N=3)): 0 (0.0) n (%)
- Best Overall Response: Partial Response (PR) (600 mg QD Fasted (N=3)): 0 (0.0) n (%)
- Best Overall Response: Progressive Disease (PD) (600 mg QD Fasted (N=3)): 1 (33.3) n (%)
- Best Overall Response: Unknown (600 mg QD Fasted (N=3)): 0 (0.0) n (%)
- Objective Response Rate (CR+PR) (600 mg QD Fasted (N=3)): 0 (0.0) n (%)
- Clinical Benefit Rate (CBR)(CR+PR+Durable SD) (600 mg QD Fasted (N=3)): 2 (66.7) n (%)
- Best Overall Response: Complete Response (CR) (1000 mg QD Fasted (N=7)): 0 (0.0) n (%)
- Best Overall Response: Not Evaluable (1000 mg QD Fasted (N=7)): 0 (0.0) n (%)
- Best Overall Response: Partial Response (PR) (1000 mg QD Fasted (N=7)): 1 (14.3) n (%)
- Best Overall Response: Progressive Disease (PD) (1000 mg QD Fasted (N=7)): 0 (0.0) n (%)
- Best Overall Response: Unknown (1000 mg QD Fasted (N=7)): 0 (0.0) n (%)
- Objective Response Rate (CR+PR) (1000 mg QD Fasted (N=7)): 1 (14.3) n (%)
- Clinical Benefit Rate (CBR)(CR+PR+Durable SD) (1000 mg QD Fasted (N=7)): 5 (71.4) n (%)
- Best Overall Response: Complete Response (CR) (1400 mg QD Fasted (N=4)): 0 (0.0) n (%)
- Best Overall Response: Not Evaluable (1400 mg QD Fasted (N=4)): 0 (0.0) n (%)
- Best Overall Response: Partial Response (PR) (1400 mg QD Fasted (N=4)): 1 (25.0) n (%)
- Best Overall Response: Progressive Disease (PD) (1400 mg QD Fasted (N=4)): 0 (0.0) n (%)
- Best Overall Response: Unknown (1400 mg QD Fasted (N=4)): 0 (0.0) n (%)
- Objective Response Rate (CR+PR) (1400 mg QD Fasted (N=4)): 1 (25.0) n (%)
- Clinical Benefit Rate (CBR)(CR+PR+Durable SD) (1400 mg QD Fasted (N=4)): 3 (75.0) n (%)
- clinical benefit rate (BID group): 25.8%
- confirmed ORR (BID group): 0%
- clinical benefit rate (complete response + partial response + durable stable disease) (BID group): 38%
- confirmed overall response rate (ORR) (BID group): 0%
- median OS (BID group): 7.3 months
- median PFS (BID group): 2.8 months
- median overall survival (OS) (BID group): 8.0 months
- median progression-free survival (PFS) (BID group): 3.4 months
- Best Overall Response: Complete Response (CR) [1]: 0 (0.0) n (%)
- Best Overall Response: Not Evaluable [1]: 0 (0.0) n (%)
- Best Overall Response: Partial Response (PR) [1]: 0 (0.0) n (%)
- Best Overall Response: Progressive Disease (PD) [1]: 1 (10.0) n (%)
- Best Overall Response: Unknown [1]: 3 (30.0) n (%)
- Objective Response Rate (CR+PR) [1]: 0 (0.0) n (%)
- Clinical Benefit Rate (CBR)(CR+PR+Durable SD) [1]: 2 (20.0) n (%)
- clinical benefit rate (QD group): 45.8%
- confirmed ORR (QD group): 12.5%
- clinical benefit rate (complete response + partial response + durable stable disease) (QD group): 52%
- confirmed overall response rate (ORR) (QD group): 8.3%
- median OS (QD group): 10.6 months
- median PFS (QD group): 4.1 months
- median overall survival (OS) (QD group): 11.1 months
- median progression-free survival (PFS) (QD group): 4.1 months
- Best Overall Response: Complete Response (CR) (Total (N=27), QD fasted): 0 (0.0) n (%)
- Best Overall Response: Not Evaluable (Total (N=27), QD fasted): 0 (0.0) n (%)
- Best Overall Response: Partial Response (PR) (Total (N=27), QD fasted): 2 (7.4%) n (%) and 2 (7.4) n (%)
- Best Overall Response: Progressive Disease (PD) (Total (N=27), QD fasted): 2 (7.4) n (%)
- Best Overall Response: Unknown (Total (N=27), QD fasted): 3 (11.1) n (%)
- Objective Response Rate (CR+PR) (Total (N=27), QD fasted): 2 (7.4) n (%)
- Clinical Benefit Rate (CBR)(CR+PR+Durable SD) (Total (N=27), QD fasted): 13 (48.1) n (%)

Source: patent publication US20230172867A1, “A METHOD FOR TREATING CANCER WITH AN ORAL DOSAGE FORM OF AN FGFR4 INHIBITOR” (Eisai R&D Management Co., Ltd., priority 2020, published 2023)
